Here are results for 25 compounds from patent US5985937A, “Use of 2,4-distributed phenol derivatives as 5-lipoxygenase inhibitors” (priority 1994, dated 1999).

In one series the target is T1, 5-lipoxygenase (5-LO) (Homo sapiens, UniProt P09917).
T1 construct: endogenous in cells; host or cells: human polymorphonuclear leukocytes from donor blood
T1 sequence (P09917 1-674): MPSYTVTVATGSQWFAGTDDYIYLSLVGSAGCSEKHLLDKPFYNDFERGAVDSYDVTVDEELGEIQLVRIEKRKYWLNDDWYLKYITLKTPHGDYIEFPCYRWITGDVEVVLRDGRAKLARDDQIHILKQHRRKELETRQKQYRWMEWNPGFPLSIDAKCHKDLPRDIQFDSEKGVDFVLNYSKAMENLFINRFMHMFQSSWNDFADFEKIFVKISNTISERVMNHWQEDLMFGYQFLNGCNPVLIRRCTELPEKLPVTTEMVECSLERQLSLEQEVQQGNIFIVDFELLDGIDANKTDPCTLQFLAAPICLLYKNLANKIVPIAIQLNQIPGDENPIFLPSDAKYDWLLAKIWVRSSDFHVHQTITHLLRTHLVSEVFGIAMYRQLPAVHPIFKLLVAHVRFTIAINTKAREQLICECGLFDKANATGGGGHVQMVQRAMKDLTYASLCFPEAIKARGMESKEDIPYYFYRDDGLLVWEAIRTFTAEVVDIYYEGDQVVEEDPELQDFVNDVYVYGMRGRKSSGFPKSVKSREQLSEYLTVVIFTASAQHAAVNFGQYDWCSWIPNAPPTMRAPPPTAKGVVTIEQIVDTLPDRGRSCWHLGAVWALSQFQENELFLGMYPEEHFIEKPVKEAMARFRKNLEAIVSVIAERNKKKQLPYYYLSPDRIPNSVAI
The series is described as follows: 5-LO inhibiting activity in human polymorphonuclear leukocytes ([14C]-arachidonic acid, A23187; HPLC of eicosanoids). In kind it is cell-based. Particulars: for inhibition at 25 µM: 25 μM concentration, read-out: 5-LO inhibitory activity, approximate inhibition percentage; for 5-LO inhibiting activity of products of monoiodination of phenol (control tests): in words; for concentration of biosynthesis products versus concentration of the drug: LTB4, 6-trans-LTB4, 5-HETE, 20-OH-LTB4, FIGS. 3 and 4; for IC50: human polymorphonuclear leukocytes, AA 10 μM, A23187 5 μM, average of five different peaks, read-out: IC50 (concentration of the drug which inhibits 50% of the AA converted by 5-LO). On the procedure: In order to show the 5-LO inhibiting activity of the products of the present invention, a specific test based on human polymorphonuclear leukocytes is chosen.
5-LO Inhibiting Activity in Polymorphonuclear Leukocytes
Blood was obtained from donors which had not received medication during the ten days previous to the extraction. The blood was treated with an anticoagulant (ACD-A) and was centrifuged at 200 g during 12 min at room temperature, separating the supernatant. A solution of Dextran T-500 in physiological serum was added to the pellet, in order to obtain a final concentration of 0.6% w/v, and was allowed to sediment during 40 min. The supernatant was centrifuged at 180 g during 10 min at room temperature. The pellet was resuspended in 5 ml of Hank's buffer, pH 7.4. After the addition of 3 ml of Lymphoprep, the suspension was centrifuged at 450 g during 30 min, and the layers of supernatant were discarded. The next step was the lysis of the erythrocytes present by adding 2 ml of a saline solution. The resulting volume was adjusted to 10 ml with Hank's buffer, pH 7.4. The solution was centrifuged during 10 min at 180 g; the supernatant was discarded and the resulting pellet was resuspended in 1-2 ml of Hank's buffer, pH 7.4. The cellular density was determined using a haemocytometer using the procedure of microcollection Unopette to determine the levels of platelet contamination. Cellular density was adjusted to 2×10^7 cells/ml with Hank's buffer, pH 7.4 and CaCl2 was added to a final concentration of 1.5 mM.
Aliquots (0.5 ml) of the polymorphonuclear leukocytes suspensions, obtained as described in part (a), were incubated during 5 min at 37° C. in the absence (control) and in the presence of three different concentrations of each drug. Afterwards an ethanol solution of [^14 C]-arachidonic acid and A23187 ionophore was added to obtain a final concentration of 10 and 5 μM, respectively. After 5 min of incubation the reaction was stopped by addition of 0.5 ml of ice-cold ethanol. Samples were centrifuged during 2 min at 1500 g, and the supernatants were kept at -80° C. until analyzed. Controls were carried out using the polymorphonuclear leukocyte suspensions aliquots in the presence of the solvent (DMSO) only.
The analysis of the products from the transformation of arachidonic acid through the action of the lipoxygenase (these products being the eicosanoids) was carried out using high pressure liquid chromatography (HPLC), in a reverse phase column (Ultrasphere-ODS, Beckman), injecting 500 μl of the supernatants obtained from the incubations. Elution was carried out using an isocratic mix of mathanol:water:triethylamine:trifluoroacetic acid, 75:25:0.05:0.10, with a flux of 1 ml/min. Detection was carried out with a radioactivity detector with a liquid scintillation cell on-line coupled with the column.

The conditions of series [1]: background statement; cited from earlier work.
The next series concerns dioxygenases. Particulars: background statement; cited from earlier work.
The test system of another series is 5-LO. The conditions noted are these: background statement; cited from earlier work.

Regarding `CCc1cc(I)cc(I)c1O` [Bobel-7, 2-ethyl-4,6-diiodophenol], the inhibition at 25 µM at 5-lipoxygenase (5-LO) turned out to be 74%. Consider `Oc1c(I)cc(-c2ccccc2)cc1I` [Bobel-16, 4-phenyl-2,6-diiodophenol], for which the inhibition at 25 µM on 5-lipoxygenase (5-LO) is 97%. In the case of `COc1c(OC)c(OC(C)=O)c2cc(Cl)ccc2c1OC(C)=O` [lonapalene], the toxicity result in series [1] is on record as “much too toxic”. `CCc1c(I)cc(I)c(O)c1I` [Bobel-26, 3-ethyl-2,4,6-triiodophenol]: at 5-lipoxygenase (5-LO), the inhibition at 25 µM amounted to 94%. With `CC(C)(C)c1cc(I)ccc1O` [Bobel-3, 2-tert-butyl-4-iodophenol], at 5-lipoxygenase (5-LO), the inhibition at 25 µM was 96%. Take `Oc1c(I)cc(Cl)cc1I` [Bobel-18, 4-chloro-2,6-diiodophenol]: the inhibition at 25 µM at 5-lipoxygenase (5-LO) is 80%. As to `CC(C)(C)c1cc(I)c(O)c(I)c1` [Bobel-15, 4-tert-butyl-2,6-diiodophenol], the inhibition at 25 µM on 5-lipoxygenase (5-LO) was found to be 85%. The same measure, in the same setting: the figure for `CC(C)c1cc(I)c(O)c(I)c1` [Bobel-14, 4-isopropyl-2,6-diiodophenol] is 85%; for `Oc1c(I)cc(I)c(Cl)c1I` [Bobel-30, 3-chloro-2,4,6-triiodophenol] it is 90%. Regarding `Oc1ccccc1I` [Bobel 2-iodophenol, 2-iodophenol, reference compound], on 5-lipoxygenase (5-LO), the “5-LO inhibiting activity of products of monoiodination of phenol (control tests)” value (shortened to “5-LO inhibiting activity”) is listed as “negligible activity”. As to `Oc1ccc(I)cc1` [Bobel 4-iodophenol, 4-iodophenol, reference compound], on 5-lipoxygenase (5-LO), the “5-LO inhibiting activity” value is reported as “negligible activity”. Consider `Oc1c(I)cc(C(F)(F)F)cc1I` [Bobel-20, 4-trifluoromethyl-2,6-diiodophenol], for which the inhibition at 25 µM on 5-lipoxygenase (5-LO) worked out at 100%.

For the compound `Cc1c(I)cc(I)c(O)c1I` [Bobel-25, 3-methyl-2,4-6-triiodophenol], the inhibition at 25 µM at 5-lipoxygenase (5-LO) was determined as 97%. Regarding `CC(C)c1cc(I)cc(C(C)C)c1O` [Bobel-4, 2,6-diisopropyl-4-iodophenol], at 5-lipoxygenase (5-LO), the inhibition at 25 µM is 94%. The same measure, in the same setting: the figure for `Oc1c(Br)cc(I)cc1I` [Bobel-11, 2-bromo-4,6-diiodophenol] is 88%. Turning to `CC(Cc1ccc(O)c(O)c1)C(C)Cc1ccc(O)c(O)c1` (centres unmarked) [NDGA, nordihydroguayaretic acid], the inhibition of dioxygenases entry in the series on dioxygenases is “inhibitor of all dioxygenases”. In addition, the 5-LO inhibition result in the series with 5-LO is given as “potent 5-LO inhibitor”.

In the case of `CC(C)(C)c1cc(I)cc(I)c1O` [Bobel-9, 2-tert-butyl-4,6-diiodofenol], the inhibition at 25 µM on 5-lipoxygenase (5-LO) came to 87%.

With `Oc1c(I)cc(I)c(F)c1I` [Bobel-29, 3-fluoro-2,4,6-triiodophenol], the inhibition at 25 µM on 5-lipoxygenase (5-LO) turned out to be 100%. Consider `CC(C)c1cc(I)cc(I)c1O` [Bobel-8, 2-isopropyl-4,6-diiodophenol], for which, on 5-lipoxygenase (5-LO), the inhibition at 25 µM was 95%. For the compound `Oc1cccc(I)c1` [Bobel 3-iodophenol, 3-iodophenol, reference compound], the “5-LO inhibiting activity” value on 5-lipoxygenase (5-LO) was “negligible activity”. For the compound `Oc1c(I)cc(I)cc1C(F)(F)F` [Bobel-12, 2-trifluoromethyl-4,6-diiodophenol], the inhibition at 25 µM at 5-lipoxygenase (5-LO) turned out to be 97%.

Turning to `CC(C)(C)c1ccc(O)c(I)c1` [Bobel-2, 4-tert-butyl-2-iodophenol], the inhibition at 25 µM on 5-lipoxygenase (5-LO) was 80%.

`Oc1c(Cl)cc(I)cc1I` [Bobel-10, 2-chloro-4,6-diiodophenol]: at 5-lipoxygenase (5-LO), the inhibition at 25 µM was found to be 73%.

As to `CC(C(=O)O)c1ccc2oc(-c3ccc(Cl)cc3)nc2c1` (centres unmarked) [benoxaprofen, reference compound], in series [1], the toxicity entry is given as “much too toxic”. At 5-lipoxygenase (5-LO), the “concentration of biosynthesis products versus concentration of the drug” value is reported as “decreased in approximately linear with the concentration of the drug used” and the IC50 stood at 92 µM. With `CC(=O)N1CCN(c2ccc(OCC3COC(Cn4ccnc4)(c4ccc(Cl)cc4Cl)O3)cc2)CC1` (centres unmarked) [ketaconozale, ketoconazole, reference compound], at 5-lipoxygenase (5-LO), the “concentration of biosynthesis products versus concentration of the drug” value is listed as “decreased in approximately linear with the concentration of the drug used” and the IC50 was 102 µM.

A word on the inhibition: it is the change of the read-out against control, counted positive when it falls.
